According to patent US20260097047A1, “Small molecule inhibitors of the ribosome biogenesis factor NVL2” (Board of Regents, The University of Texas System, priority 2023, published 2026):

The compounds below were run on HCT116 cells (assay: Cell viability assay (CellTiter-Glo, 72 hours) in HCT116 human colorectal cancer cells). Settings: Homo sapiens, HCT-116; Table 5; HCT116, 72 hours; read-out: Activity.
Type: cell-based
Summary of the method: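 2,000 cells/well adhered overnight, then compound added by digital dispenser with DMSO normalized to 0.5%. Viability read after 72 h at 37 °C by ATP-based CellTiter-Glo luminescence. IC50 from ten-point curves baseline-corrected to vehicle, five-parameter asymmetric least-squares fit.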

Structure (SMILES) | IC50 [nM]
CC#CCN1C(=O)c2ccccc2Sc2cc(Nc3ccc(C)nn3)ccc21 [10-(But-2-yn-1-yl)-7-((6-methylpyridazin-3-yl)amino)dibenzo[b,f][1,4]thiazepin-11 (10H)-one] | < 500
CC#CCN1C(=O)c2ccccc2Sc2cc(Nc3ncnc(Cl)n3)ccc21 [10-(But-2-yn-1-yl)-7-((4-chloro-1,3,5-triazin-2-yl)amino)dibenzo[b,f][1,4]thiazepin-11 (10H)-one] | 1000 to 5000
CC#CCN1C(=O)c2ccc(F)cc2Sc2cc(Nc3ncccc3C)ccc21 [10-(But-2-yn-1-yl)-3-fluoro-7-((3-methylpyridin-2-yl)amino)dibenzo[b,f][1,4]thiazepin-11 (10H)-one] | < 500
CC#CCN1C(=O)c2ccccc2Cc2cc(Nc3ncccc3C#N)ccc21 [2-((5-(But-2-yn-1-yl)-6-oxo-6,11-dihydro-5H-dibenzo[b,e]azepin-2-yl)amino) nicotinonitrile] | < 500
CC#CCN1C(=O)c2ccccc2Sc2cc(Nc3cc(C)cnn3)ccc21 [10-(But-2-yn-1-yl)-7-((5-methylpyridazin-3-yl)amino)dibenzo[b,f][1,4]thiazepin-11 (10H)-one] | < 500
CC#CCN1C(=O)c2ccccc2Sc2cc(Nc3ncnc(C#N)n3)ccc21 [4-((10-(But-2-yn-1-yl)-11-oxo-10,11-dihydrodibenzo[b,f][1,4]thiazepin-7-yl)amino)-1,3,5-triazine-2-carbonitrile] | 1000 to 5000
CC#CCN1C(=O)c2ccc(C#N)cc2Sc2cc(Nc3nccc(C#N)c3C)ccc21 [10-(But-2-yn-1-yl)-7-((4-cyano-3-methylpyridin-2-yl)amino)-11-oxo-10,11-dihydrodibenzo[b,f][1,4]thiazepine-3-carbonitrile] | < 500

Same assay, conditions: Homo sapiens, HCT-116; Table 6; HCT116, 72 hours; read-out: Activity

Structure (SMILES) | IC50 [nM]
CC#CCN1C(=O)c2ccccc2Sc2cc(NC3CCOC3C)ccc21 (stereo not drawn) [10-(But-2-yn-1-yl)-7-((2-methyltetrahydrofuran-3-yl)amino)dibenzo[b,f][1,4]thiazepin-11 (10H)-one] | < 500
CC#CCN1C(=O)c2ccccc2Sc2cc(NC3COCC3C)cnc21 (stereo not drawn) [11-(But-2-yn-1-yl)-3-((4-methyltetrahydrofuran-3-yl)amino)benzo[f]pyrido[3,2-b][1,4]thiazepin-10(11H)-one] | < 500

Same assay, conditions: Homo sapiens, HCT-116; Table 9; HCT116, 72 hours; read-out: Activity

Structure (SMILES) | IC50 [nM]
CC#CCN1C(=O)c2ccccc2C(C#N)c2cc(NC(=O)c3ccc(OC)cc3)ccc21 (stereo not drawn) [Table 9: —CH2CCMe; 4-MeOPh; CHCN, N-(5-(But-2-yn-1-yl)-11-cyano-6-oxo-6,11-dihydro-5H-dibenzo[b,e]azepin-2-yl)-4-methoxybenzamide] | < 500
CC#CCN1C(=O)c2ccccc2C(C)(O)c2cc(NC(=O)c3ccc(OC)cc3)ccc21 (stereo not drawn) [Table 9: —CH2CCMe; 4-MeOPh; CMeOH, N-(5-(But-2-yn-1-yl)-11-hydroxy-11-methyl-6-oxo-6,11-dihydro-5H-dibenzo[b,e]azepin-2-yl)-4-methoxybenzamide] | < 500

Same assay, conditions: Table 3; HCT116, 72 hours; read-out: Activity

Structure (SMILES) | IC50 [nM]
CC#CCN1C(=O)c2ccccc2Sc2cc(NC(=O)NC3COC3)ccc21 [Table 3: —CH2CCMe; oxetan-3-yl; CH/CH] | < 500
CC#CCN1C(=O)c2ccccc2Sc2cc(NC(=O)N[C@H]3C[C@@H](OC)C3)cnc21 [Table 3: —CH2CCMe; cis-3-MeOcBu; CH/N] | < 500

Same assay, conditions: Table 4; HCT116, 72 hours; read-out: Activity

Structure (SMILES) | IC50 [nM]
CC#CCN1C(=O)c2ccccc2Sc2cc(NC(=S)Nc3cccc(OC)c3)ccc21 [Table 4: —CH2CCMe; 3-MeOPh; CH] | < 500
CC#CCN1C(=O)c2ccccc2Sc2cc(NC(=S)N[C@H]3C[C@@H](OC)C3)ccc21 [Table 4: —CH2CCMe; cis-3-MeOcBu; CH] | < 500

Same assay, conditions: Table 5; HCT116, 72 hours; read-out: Activity

Structure (SMILES) | IC50 [nM]
C#CCN1C(=O)c2ccccc2Sc2cc(Nc3nnccc3C)ccc21 | < 500
Cc1cnc(Nc2ccc3c(c2)Sc2ccccc2C(=O)N3CC#CCl)c(C)c1 | < 500
CC#CCN1C(=O)c2ccccc2Sc2cc(Nc3ncccc3OC)cnc21 | < 500
CC#CCN1C(=O)c2ccccc2Sc2cc(Nc3nc(C)cnc3C)cnc21 | < 500
Cc1ccnnc1Nc1cnc2c(c1)Sc1ccccc1C(=O)N2CC#CCl | < 500

Same assay, conditions: Table 6; HCT116, 72 hours; read-out: Activity

Structure (SMILES) | IC50 [nM]
C#CCN1C(=O)c2ccccc2Sc2cc(NC3CC(O)C3)ccc21 (stereo not drawn) [Table 6: —CH2CCH; 3-HOcBu; CH/CH; S] | < 500
CC#CCN1C(=O)c2ccccc2Sc2cc(NCC3(C)COC3)cnc21 | < 500

Same assay, conditions: Table 7; cell viability assay, CellTiter-Glo, 72 hours; scaffold drawing 42 with R^2, R^3, X/Y, Z; read-out: Activity

Structure (SMILES) | IC50 [nM]
COCCN1C(=O)c2ccccc2Sc2cc(NC(=O)c3ccoc3C)ccc21 [—(CH2)2OMe; 2-Me-furan-3-yl; CH/CH; S] | 500 to 1000
COCCN1C(=O)c2ccccc2Sc2cc(NC(=O)c3ccc(C(F)(F)F)cc3)ccc21 [—(CH2)2OMe; 4-CF3Ph; CH/CH; S] | 1000 to 5000
COCCN1C(=O)c2ccccc2Sc2cc(NC(=O)c3ccc4oc(C)nc4c3)ccc21 | < 500
CCCCCCN1C(=O)c2ccccc2Sc2cc(NC(=O)c3ccoc3)ccc21 [-nHexyl; furan-3-yl; CH/CH; S] | < 500
COCCN1C(=O)c2ccccc2Sc2cc(NC(=O)c3ccn4ccnc4c3)ccc21 | 1000 to 5000
C=CCN1C(=O)c2ccc(F)cc2Sc2cc(NC(=O)c3ccc4scnc4c3)ccc21 | < 500

Same assay, conditions: Table 8; analogs of scaffold drawing 43 defined by R^2, R^3, X/Y, W; read-out: Activity (IC50 class, cell viability assay)

Structure (SMILES) | IC50 [nM]
O=C(CC1COC1)Nc1ccc2c(c1)Sc1ccccc1C(=O)N2CC#CC1CC1 [—CH2CC^cPr; (oxetan-3-yl)CH2; CH/CH; CH] | < 500
CC#CCN1C(=O)c2ccc(F)cc2Sc2cc(NC(=O)c3ccc(OC)nc3)ccc21 [—CH2CCMe; 6-MeO-pyrid-3-yl; CF/CH; CH] | < 500
CC#CCN1C(=O)c2ccccc2Sc2cc(NC(=O)C34CC(C3)C4)cnc21 | < 500
CON=C1CC2(C1)CC(C(=O)Nc1cnc3c(c1)Sc1ccc(F)cc1C(=O)N3CC#CC1CC1)C2 (stereo not drawn) | < 500
CC#CCN1C(=O)c2ccc(F)cc2Sc2cc(NC(=O)c3ccc4scnc4c3)ccc21 | < 500
CC#CCN1C(=O)c2ccc(C#N)cc2Sc2cc(NC(=O)[C@@H]3C[C@H]3COC)ccc21 (relative stereo) [—CH2CCMe; trans-2-MeOCH2-cPr; CCN/CH; CH] | < 500
CC#CCN1C(=O)c2ccccc2Sc2cc(NC(=O)C=CCOC)cnc21 [—CH2CCMe; CH—CHCH2OMe; CH/CH; N] | < 500
O=C1c2ccccc2Sc2cc(NC(=O)[C@H]3C[C@@H](O)C3)cnc2N1CC#CC1CC1 [—CH2CC^cPr; cis-3-OH-cBu; CH/CH; N] | < 500
CC#CCN1C(=O)c2cc(F)ccc2Sc2cc(NC(=O)C34CC(OC)(C3)C4)cnc21 | < 500
CC#CCN1C(=O)c2ccccc2Sc2cc(NC(=O)CCCO)ccc21 [—CH2CCMe; (CH2)3OH; CH/CH; CH] | < 500
CON=C1CC2(C1)CC(C(=O)Nc1ccc3c(c1)Sc1ccc(F)cc1C(=O)N3CC#CCl)C2 (stereo not drawn) | < 500
CC#CCN1C(=O)c2ccccc2Sc2cc(NC(=O)C3CCC3)cnc21 [—CH2CCMe; cBu; CH/CH; N] | < 500
CON=C1CC2(C1)CC(C(=O)Nc1cnc3c(c1)Sc1ccccc1C(=O)N3CC#CCl)C2 (stereo not drawn) | < 500
CC#CCN1C(=O)c2ccccc2Sc2cc(NC(=O)c3ccoc3)cnc21 [—CH2CCMe; furan-3-yl; CH/CH; N] | < 500
CC#CCN1C(=O)c2ccc(Cl)cc2Sc2cc(NC(=O)[C@H]3C[C@H](OC)C3)ccc21 [—CH2CCMe; trans-3-MeOcBu; CCl/CH; CH] | < 500
CON=C1CC2(C1)CC(C(=O)Nc1ccc3c(c1)Sc1cc(Cl)ccc1C(=O)N3CC#CCl)C2 (stereo not drawn) | < 500
CC#CCN1C(=O)c2cc(F)ccc2Sc2cc(NC(=O)C(C)CCOC)ccc21 (stereo not drawn) [—CH2CCMe; MeO(CH2)2CHMe-; CH/CF; CH] | < 500
CC#CCN1C(=O)c2ccc(Cl)cc2Sc2cc(NC(=O)[C@H]3C[C@@H](O)C3)cnc21 [—CH2CCMe; cis-3-OH-cBu; CCI/CH; N] | < 500
CC#CCN1C(=O)c2ccccc2Sc2cc(NC(=O)c3cccc(CCC#N)c3)ccc21 [—CH2CCMe; 3-(2′-CNEt)Ph; CH/CH; CH] | < 500
CO[C@H]1C[C@@H](C(=O)Nc2cnc3c(c2)Sc2ccccc2C(=O)N3CC#CC(F)(F)F)C1 [—CH2CCCF3; cis-3-MeOcBu; CH/CH; N] | < 500
CC#CCN1C(=O)c2ccccc2Sc2cc(NC(=O)OCCOC)ccc21 [—CH2CCMe; O(CH2)2OMe; CH/CH; CH] | < 500
COCC1CC(C(=O)Nc2cnc3c(c2)Sc2ccccc2C(=O)N3CC#CC2CC2)C1 (stereo not drawn) [—CH2CC^cPr; 3-MeOCH2-cBu; CH/CH; N] | < 500
CC#CCN1C(=O)c2ccc(Cl)cc2Sc2cc(NC(=O)[C@H]3C[C@@H]3COC)cnc21 (relative stereo) [—CH2CCMe; trans-2-MeOCH2-cPr; CCl/CH; N] | < 500
CC#CCN1C(=O)c2ccccc2Sc2cc(NC(=O)C34CC(C#N)(C3)C4)cnc21 | < 500
CC#CCN1C(=O)c2ccc(F)cc2Sc2cc(NC(=O)[C@H]3C[C@H](OC)C3)cnc21 [—CH2CCMe; trans-3-MeOcBu; CF/CH; N] | < 500

Same assay, conditions: Table 9; HCT116, 72 hours; read-out: Activity

Structure (SMILES) | IC50 [nM]
CC#CCN1C(=O)c2ccccc2C(C)(O)c2cc(NC(=O)[C@H]3C[C@H](OC)C3)ccc21 (stereo partly drawn) [Table 9: —CH2CCMe; trans-3-MeOcBu; CMeOH] | < 500
CC#CCN1C(=O)c2ccccc2C(C)(O)c2cc(NC(=O)C3CC4(CC(=NO)C4)C3)ccc21 (stereo not drawn) | < 500
CC#CCN1C(=O)c2ccccc2C(C)c2cc(NC(=O)NCCOC)ccc21 (stereo not drawn) [Table 9: —CH2CCMe; NH(CH2)2OMe; CHMe] | < 500
CO[C@H]1C[C@H](C(=O)Nc2ccc3c(c2)C(C)(O)c2ccccc2C(=O)N3CC#CCl)C1 (stereo partly drawn) [Table 9: —CH2CCCl; trans-3-MeOcBu; CMeOH] | < 500
CC#CCN1C(=O)c2ccccc2C(C)c2cc(NC(=O)[C@@H]3C[C@H]3C(=O)OC)ccc21 (relative stereo) | < 500

Same assay, conditions: cell viability assay; Table 10 analogs of scaffold drawing 45 defined by R2, R3, X/Y, W; read-out: Activity

Structure (SMILES) | IC50 [nM]
CC#CCN1C(=O)c2ccc(Cl)cc2Sc2cc(NC(=O)[C@H]3C[C@H](OC)C3)ccc21 [—CH2CCMe; trans-3-MeOcBu; CCl/CH; CH] | < 500
CC#CCN1C(=O)c2ccc(F)cc2Sc2cc(NC(=O)[C@H]3C[C@H](OC)C3)cnc21 [—CH2CCMe; trans-3-MeOcBu; CF/CH; N] | < 500
